Assay results as given in ChEMBL document CHEMBL1201862, “PubChem BioAssay data set” (2004).
Activity calls are given as the source filed them.

Experiments:
Candida albicans [1] = test: C. albicans growth inhibition with fluconazole – CaCi-2 strain, Alamar Blue, dry powder, set 4, dose response (AID 488943); type: functional, organism-based
Candida albicans [2] = test: antifungal activity against resistant Candida strain – CaCi-8, fluconazole, Alamar Blue, dry powder, dose response (AID 488807); type: functional, organism-based
NIH3T3 = test: mammalian cell viability counter-check – Alamar Blue, fluconazole, dry powder, cytotoxicity control for antifungal drug resistance project, dose response (AID 488809); type: functional, cell-based; conditions: Mus musculus
[3] = NIH3T3 cell viability loss – ATP luminescence, mouse fibroblasts, counter-screen, dose response (AID 2010); type: functional, cell-based;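 further: cells exposed to compound for about 90 hours before reading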
Candida albicans [4] = test: fluconazole-resistant Candida strain growth inhibitors – CaCi-8 strain, dry powder, set 4, dose response (AID 488950); type: functional, organism-based
[5] = Trypanosoma cruzi growth suppression in host cells – NIH3T3 host cells, beta-gal luminescence, confirmation (AID 2044); type: functional, cell-based;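 further: intracellular parasites grown in NIH/3T3 mouse fibroblasts as host cells; luminescent beta-galactosidase reporter signal from transgenic T. cruzi replicating inside host cells; inhibitors lower the luminescence signal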
Phospholipase A2 = Phospholipase A2 (Homo sapiens, UniProt P04054); test: phospholipase A2 activity inhibition – biochemical, set 2, counter-screen for ATG4B inhibitor project, dose response (AID 588586); type: functional
Cysteine protease ATG4B = Cysteine protease ATG4B (Homo sapiens, UniProt Q9Y4P1); test: autophagin-1 cysteine protease inhibition – biochemical, fluorescence, set 2, dose response (AID 588584); type: functional
[6] = target: DNA dC->dU-editing enzyme APOBEC-3A (Homo sapiens, UniProt P31941); test: A3A deaminase inhibition for selectivity – biochemical, dose response (AID 504722); type: functional
[7] = target: DNA dC->dU-editing enzyme APOBEC-3G (Homo sapiens, UniProt Q9HC16); test: Dose Response confirmation of small molecule APOBEC3G DNA Deaminase Inhibitors via a fluorescence-based single-stranded DNA deaminase assay. [Related pubchem assays (depositor defined):AID493012, AID493028]; type: functional
[8] = target: T1, Mannose-6-phosphate isomerase (Homo sapiens, UniProt P34949); test: phosphomannose isomerase inhibition – biochemical, fluorescence intensity, confirmation (AID 1535)
T1 sequence (P34949 whole entry): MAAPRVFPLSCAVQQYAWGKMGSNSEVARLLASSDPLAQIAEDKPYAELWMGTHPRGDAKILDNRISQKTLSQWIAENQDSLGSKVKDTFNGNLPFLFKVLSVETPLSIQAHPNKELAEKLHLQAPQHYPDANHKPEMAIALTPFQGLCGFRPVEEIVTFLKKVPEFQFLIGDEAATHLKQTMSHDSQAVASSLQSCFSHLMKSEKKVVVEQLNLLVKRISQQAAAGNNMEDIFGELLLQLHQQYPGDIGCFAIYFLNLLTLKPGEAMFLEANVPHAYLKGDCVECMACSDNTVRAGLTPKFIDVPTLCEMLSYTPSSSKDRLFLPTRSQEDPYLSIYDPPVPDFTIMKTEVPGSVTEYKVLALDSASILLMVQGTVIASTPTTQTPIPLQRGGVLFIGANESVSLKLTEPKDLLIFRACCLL

[9] = target: T1, Mannose-6-phosphate isomerase; test: MPI enzyme activity inhibition – biochemical, fluorescence intensity, coupled assay, primary screen (AID 1209)
Phosphomannomutase 2 = Phosphomannomutase 2 (Homo sapiens, UniProt O15305); test: Counter screen SAR assay for PMM2 inhibitors via a fluorescence intensity assay. [Related pubchem assays (depositor defined):AID1545, AID1574]
[10] = Luminescence Cell-Based Dose Retest to Confirm Inhibitors of Cancer Stem Cells. [Related pubchem assays (depositor defined):AID2717, AID2721]; type: functional; conditions: Homo sapiens
Trypsin = Trypsin (Sus scrofa, UniProt P00761); test: trypsin protease activity blockade – biochemical, quenched peptide fluorescence, cherry-pick, selectivity assay for Rce1 protease inhibitor project, dose response (AID 488789)
CAAX prenyl protease 2 = CAAX prenyl protease 2 (Homo sapiens, UniProt Q9Y256); test: inhibition of Ras-converting CAAX protease Rce1 – biochemical, yeast membranes, quenched-peptide fluorescence, cherry-pick, dose response (AID 588849)
[11] = viability of uninfected HEp-2 cells – cell-based, HTS, cytotoxicity control for RSV inhibitor project, dose response (AID 2410); type: functional; conditions: human respiratory syncytial virus
DNA topoisomerase = DNA topoisomerase (Yersinia pestis, UniProt A0A2S9PM60); test: Yersinia topoisomerase I cleavage product accumulation – biochemical, cherry-pick, dose response (AID 588525)
Jurkat [12] = test: SAR Analysis of small molecule inhibitors of T-cell specific antigen receptor-induced NF-kB activation in a Jurkat cell line using a luminescence assay - Set 2. [Related pubchem assays (depositor defined):AID435003, AID435012, AID465]; type: functional, cell-based; conditions: Homo sapiens
HEK293 [13] = test: SAR Analysis of small molecule inhibitors of T-cell specific antigen receptor-induced NF-kB activation in a HEK-293T cell line using a luminescence assay - Set 2. [Related pubchem assays (depositor defined):AID435003, AID435012, AID489026]; type: functional, cell-based; conditions: Homo sapiens
HEK293 [14] = test: HEK293T cell viability loss, resazurin readout – resazurin fluorescence, cytotoxicity control for NF-kB activator project, SAR follow-up (AID 493251); type: functional, cell-based; conditions: Homo sapiens
Beta-galactosidase = Beta-galactosidase (Escherichia coli, UniProt Q8VNN2); test: PubChem AID 485352; type: functional
[15] = target: T2, Polyadenylate-binding protein 1 (Homo sapiens, UniProt P11940); test: MLLE binding blockers, Cy5 peptide tracer – biochemical, fluorescence polarization, Cy5-PAM2 peptide, secondary, miRNA deadenylation inhibitor project, dose response (AID 602260); type: functional; conditions: read-out: IC50_Mean
[16] = target: T2, Polyadenylate-binding protein 1; test: MLLE domain peptide-binding blockers, IC50 – biochemical, fluorescence polarization, FITC-PAM2 peptide, dose response (AID 602259); type: functional; conditions: read-out: IC50_Mean
[17] = target: T3, Type-1 angiotensin II receptor (Homo sapiens, UniProt P30556); test: antagonism of angiotensin II type 1 receptor – cell-based, uHTS hits, selectivity assay for APJ receptor antagonist project, dose response (AID 463214); type: functional;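 further: antagonist potency against angiotensin II stimulated AT1 response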
T3 sequence (P30556 whole entry): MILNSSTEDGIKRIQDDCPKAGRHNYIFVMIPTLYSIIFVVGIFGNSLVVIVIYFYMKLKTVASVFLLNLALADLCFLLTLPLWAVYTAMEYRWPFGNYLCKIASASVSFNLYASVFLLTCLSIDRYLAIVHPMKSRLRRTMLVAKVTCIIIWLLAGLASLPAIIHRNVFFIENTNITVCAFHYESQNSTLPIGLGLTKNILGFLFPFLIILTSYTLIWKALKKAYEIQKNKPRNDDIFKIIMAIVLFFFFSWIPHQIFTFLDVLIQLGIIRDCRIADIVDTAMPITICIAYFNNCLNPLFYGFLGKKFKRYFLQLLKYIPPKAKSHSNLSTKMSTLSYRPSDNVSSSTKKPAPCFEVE

[18] = MIN6 cell viability loss – mouse insulinoma, cytotoxicity control, dose response (AID 2122); type: functional;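 further: confirmatory high-throughput counterscreen run to flag cytotoxic compounds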
[19] = decrease of insulin promoter-GFP reporter – imaging, high-content screening, mouse beta cells (AID 1628); type: functional; conditions: MIN6
[20] = target: T4, Endoribonuclease toxin MazF (Escherichia coli K-12, UniProt P0AE70); test: activation of MazEF endoribonuclease cleavage – biochemical, fluorescence, single-stranded RNA substrate, uHTS hits, dose response (AID 588481); type: functional
[21] = target: T4, Endoribonuclease toxin MazF; test: substrate-only fluorescence increase artefacts – biochemical, single-stranded RNase substrate, counter-screen for MazEF activator project, dose response (AID 588502); type: functional
[22] = target: Glyceraldehyde-3-phosphate dehydrogenase (Homo sapiens, UniProt P04406)
[23] = target: T5, Dual specificity protein phosphatase 6 (Rattus norvegicus, UniProt Q64346); type: functional
T5 sequence (Q64346 whole entry): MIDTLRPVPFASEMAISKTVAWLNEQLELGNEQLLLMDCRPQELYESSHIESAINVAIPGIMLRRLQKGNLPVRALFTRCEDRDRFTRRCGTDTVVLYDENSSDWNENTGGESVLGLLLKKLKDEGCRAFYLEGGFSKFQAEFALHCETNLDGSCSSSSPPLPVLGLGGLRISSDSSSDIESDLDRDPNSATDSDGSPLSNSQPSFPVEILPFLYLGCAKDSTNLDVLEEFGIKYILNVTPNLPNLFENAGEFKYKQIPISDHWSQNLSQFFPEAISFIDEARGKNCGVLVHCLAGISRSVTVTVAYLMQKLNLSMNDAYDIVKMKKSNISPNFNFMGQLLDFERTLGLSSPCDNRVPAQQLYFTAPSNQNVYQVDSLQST

[24] = target: T5, Dual specificity protein phosphatase 6
[25] = target: Tyrosine-protein phosphatase non-receptor type 7 (Homo sapiens, UniProt P35236); type: functional
INS1 = test: INS-1E survival protection against cytokine death – cell-based, luminescence, retest, dose response (AID 449756); type: functional; conditions: Rattus norvegicus;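 further: cell death triggered by IL-1 beta plus TNF-alpha plus IFN-gamma mixture; protective hits raise ATP signal compared with cytokine alone wells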
Jurkat [26] = test: blockers of NF-kB activation in T cells – Jurkat, luciferase reporter, luminescence, B- and T-cell, dose response (AID 489004); type: functional, cell-based; conditions: Homo sapiens;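 further: NF-kB luciferase reporter Jurkat cells stimulated with PMA plus ionomycin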
[27] = HEK-293T viability loss, compound-treated – cell-based, uHTS hits, cytotoxicity control for B/T-cell NF-kB inhibitor project, dose response (AID 489019); type: functional;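 further: IC50 reflects cytotoxicity as loss of cell viability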
[28] = target: Nuclear receptor ROR-alpha (Homo sapiens, UniProt P35398); test: LXR, FXR and VP16 reporter activity, cell-based, luciferase reporter, ROR modulator project, late-stage follow-up, panel member RORA (AID 2117)
[29] = target: Nuclear receptor ROR-gamma (Homo sapiens, UniProt P51449); test: LXR, FXR and VP16 reporter activity, cell-based, luciferase reporter, ROR modulator project, late-stage follow-up, panel member RORG (AID 2117)
Candida albicans [30] = test: Candida growth inhibition combined with fluconazole – CaCi-2 strain, Alamar Blue, dry powder, set 3, dose response (AID 488907); type: functional, organism-based
[31] = target: Delta-type opioid receptor (Homo sapiens, UniProt P41143); test: Counterscreen for agonists of heterodimerization of the mu 1 (OPRM1) and delta 1 (OPRD1) opioid receptors: Luminescence-based cell-based high throughput dose response assay to identify agonists of OPRD1 homodimerization. [Related pubchem assays (depositor defined):AID504326, AID504355, AID504692, AID504904, AID504905]; type: functional
Mu-type opioid receptor = Mu-type opioid receptor (Homo sapiens, UniProt P35372); test: Counterscreen for agonists of heterodimerization of the mu 1 (OPRM1) and delta 1 (OPRD1) opioid receptors: Luminescence-based cell-based high throughput dose response assay to identify agonists of OPRM1 homodimerization.; type: functional;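 further: U2OS cells expressing OPRM1 and beta-arrestin as split beta-galactosidase partners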
[32] = target: 5-hydroxytryptamine receptor 5A (Homo sapiens, UniProt P47898); test: Counterscreen for agonists of OPRM1-OPRD1 heterodimerization: luminescence-based cell-based high throughput dose response assay to identify agonists of 5-hydroxytryptamine (serotonin) 5A receptor (HTR5A). [Related pubchem assays (depositor defined):AID504326, AID504355, AID504692, AID504904, AID504905]; type: functional
Chain of 5-hydroxytryptamine receptor 5A (P47898 whole entry): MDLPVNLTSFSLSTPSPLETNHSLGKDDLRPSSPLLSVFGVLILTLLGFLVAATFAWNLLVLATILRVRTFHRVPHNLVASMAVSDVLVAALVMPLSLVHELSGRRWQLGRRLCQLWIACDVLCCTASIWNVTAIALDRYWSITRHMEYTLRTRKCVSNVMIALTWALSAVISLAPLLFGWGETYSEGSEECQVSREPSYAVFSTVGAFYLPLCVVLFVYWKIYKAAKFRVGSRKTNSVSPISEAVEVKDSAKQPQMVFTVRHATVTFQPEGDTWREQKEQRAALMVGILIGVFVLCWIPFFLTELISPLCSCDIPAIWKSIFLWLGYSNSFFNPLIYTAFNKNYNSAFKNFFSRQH

T4 sequence (P0AE70 whole entry): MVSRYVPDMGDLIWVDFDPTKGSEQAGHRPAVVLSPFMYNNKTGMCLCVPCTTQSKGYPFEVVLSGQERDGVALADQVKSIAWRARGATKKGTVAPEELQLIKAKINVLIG
T2 sequence (P11940 whole entry, the tested form may be a part): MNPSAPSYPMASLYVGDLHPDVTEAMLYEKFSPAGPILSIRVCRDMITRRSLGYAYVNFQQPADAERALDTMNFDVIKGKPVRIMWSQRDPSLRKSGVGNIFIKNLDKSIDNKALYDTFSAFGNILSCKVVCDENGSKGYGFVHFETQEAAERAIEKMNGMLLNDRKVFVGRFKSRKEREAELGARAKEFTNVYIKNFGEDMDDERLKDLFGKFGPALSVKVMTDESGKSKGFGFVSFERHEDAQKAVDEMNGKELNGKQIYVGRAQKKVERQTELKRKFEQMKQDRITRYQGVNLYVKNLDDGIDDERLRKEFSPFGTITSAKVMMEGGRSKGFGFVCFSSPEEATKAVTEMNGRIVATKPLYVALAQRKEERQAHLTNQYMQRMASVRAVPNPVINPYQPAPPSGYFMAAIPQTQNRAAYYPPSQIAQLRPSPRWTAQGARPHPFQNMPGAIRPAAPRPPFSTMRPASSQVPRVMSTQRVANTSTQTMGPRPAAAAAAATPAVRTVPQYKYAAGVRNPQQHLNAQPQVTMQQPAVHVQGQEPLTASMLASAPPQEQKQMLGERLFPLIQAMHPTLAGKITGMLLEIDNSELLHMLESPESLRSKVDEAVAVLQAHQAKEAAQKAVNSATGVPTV
Chain of Nuclear receptor ROR-alpha (P35398 whole entry): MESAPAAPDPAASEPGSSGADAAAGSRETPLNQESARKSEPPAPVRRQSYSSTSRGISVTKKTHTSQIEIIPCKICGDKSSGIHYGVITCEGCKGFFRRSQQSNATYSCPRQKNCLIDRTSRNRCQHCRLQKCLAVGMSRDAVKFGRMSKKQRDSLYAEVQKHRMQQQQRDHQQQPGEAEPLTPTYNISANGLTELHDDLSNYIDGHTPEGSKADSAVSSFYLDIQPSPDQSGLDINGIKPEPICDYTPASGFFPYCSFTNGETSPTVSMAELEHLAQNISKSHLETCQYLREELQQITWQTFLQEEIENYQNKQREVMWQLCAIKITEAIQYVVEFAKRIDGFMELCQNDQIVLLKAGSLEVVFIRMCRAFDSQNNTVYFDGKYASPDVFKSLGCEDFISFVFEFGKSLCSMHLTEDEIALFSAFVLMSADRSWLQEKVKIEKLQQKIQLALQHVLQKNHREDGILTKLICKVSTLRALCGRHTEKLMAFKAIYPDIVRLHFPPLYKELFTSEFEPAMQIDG
Chain of Delta-type opioid receptor (P41143 whole entry): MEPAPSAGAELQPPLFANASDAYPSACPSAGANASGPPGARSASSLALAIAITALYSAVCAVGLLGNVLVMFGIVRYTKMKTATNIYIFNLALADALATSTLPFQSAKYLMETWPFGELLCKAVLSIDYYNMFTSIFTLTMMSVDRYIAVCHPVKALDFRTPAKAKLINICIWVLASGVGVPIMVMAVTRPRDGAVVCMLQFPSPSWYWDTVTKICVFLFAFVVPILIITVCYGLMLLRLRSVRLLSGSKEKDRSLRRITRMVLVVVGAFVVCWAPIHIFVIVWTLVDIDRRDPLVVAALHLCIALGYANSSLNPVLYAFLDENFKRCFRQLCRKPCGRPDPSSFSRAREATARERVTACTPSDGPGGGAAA
Chain of DNA dC->dU-editing enzyme APOBEC-3A (P31941 whole entry): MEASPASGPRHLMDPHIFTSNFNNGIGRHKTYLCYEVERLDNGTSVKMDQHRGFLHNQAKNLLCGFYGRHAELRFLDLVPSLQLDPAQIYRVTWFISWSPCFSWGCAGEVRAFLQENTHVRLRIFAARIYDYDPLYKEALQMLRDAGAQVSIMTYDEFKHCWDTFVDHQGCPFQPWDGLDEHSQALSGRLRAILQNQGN
Chain of Phospholipase A2 (P04054 whole entry): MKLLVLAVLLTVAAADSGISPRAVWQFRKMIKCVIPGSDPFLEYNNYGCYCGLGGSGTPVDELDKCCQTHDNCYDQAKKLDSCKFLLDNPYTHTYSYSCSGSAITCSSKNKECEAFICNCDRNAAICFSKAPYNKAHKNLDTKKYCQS
Chain of DNA dC->dU-editing enzyme APOBEC-3G (Q9HC16 whole entry): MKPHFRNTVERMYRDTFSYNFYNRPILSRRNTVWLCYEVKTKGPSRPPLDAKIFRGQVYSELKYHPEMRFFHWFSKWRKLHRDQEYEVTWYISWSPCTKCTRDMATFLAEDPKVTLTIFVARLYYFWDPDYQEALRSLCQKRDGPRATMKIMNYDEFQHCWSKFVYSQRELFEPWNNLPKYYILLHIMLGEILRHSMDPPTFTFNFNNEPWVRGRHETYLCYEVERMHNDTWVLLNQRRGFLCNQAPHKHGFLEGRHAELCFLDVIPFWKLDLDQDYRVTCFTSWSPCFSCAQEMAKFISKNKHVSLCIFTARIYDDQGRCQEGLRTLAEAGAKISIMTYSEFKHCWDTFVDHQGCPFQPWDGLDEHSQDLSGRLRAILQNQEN
Chain of Tyrosine-protein phosphatase non-receptor type 7 (P35236 whole entry): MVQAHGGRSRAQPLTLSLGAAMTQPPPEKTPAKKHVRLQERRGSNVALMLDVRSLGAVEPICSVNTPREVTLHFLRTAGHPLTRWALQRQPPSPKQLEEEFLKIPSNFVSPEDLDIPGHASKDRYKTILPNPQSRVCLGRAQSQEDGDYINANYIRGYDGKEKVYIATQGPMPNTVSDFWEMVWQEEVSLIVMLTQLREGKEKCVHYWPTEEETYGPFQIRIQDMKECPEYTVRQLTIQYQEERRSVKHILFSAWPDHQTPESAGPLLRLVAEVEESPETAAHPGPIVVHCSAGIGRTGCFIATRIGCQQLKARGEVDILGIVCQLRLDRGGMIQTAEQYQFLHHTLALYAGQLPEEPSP
Chain of Nuclear receptor ROR-gamma (P51449 whole entry): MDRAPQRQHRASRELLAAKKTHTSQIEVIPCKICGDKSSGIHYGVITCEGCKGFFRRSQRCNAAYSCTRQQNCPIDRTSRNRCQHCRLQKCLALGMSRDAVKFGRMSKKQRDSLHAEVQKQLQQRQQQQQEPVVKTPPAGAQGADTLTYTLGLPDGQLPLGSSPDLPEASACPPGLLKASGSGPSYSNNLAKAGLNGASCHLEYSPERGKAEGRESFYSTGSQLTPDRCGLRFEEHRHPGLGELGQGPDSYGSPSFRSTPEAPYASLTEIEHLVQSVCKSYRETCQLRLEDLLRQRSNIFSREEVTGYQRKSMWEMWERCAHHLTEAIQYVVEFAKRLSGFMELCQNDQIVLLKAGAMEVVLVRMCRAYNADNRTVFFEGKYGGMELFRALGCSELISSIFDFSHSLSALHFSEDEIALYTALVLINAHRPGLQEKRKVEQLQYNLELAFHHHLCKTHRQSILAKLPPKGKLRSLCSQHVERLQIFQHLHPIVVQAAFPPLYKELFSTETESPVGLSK
Chain of Phosphomannomutase 2 (O15305 whole entry): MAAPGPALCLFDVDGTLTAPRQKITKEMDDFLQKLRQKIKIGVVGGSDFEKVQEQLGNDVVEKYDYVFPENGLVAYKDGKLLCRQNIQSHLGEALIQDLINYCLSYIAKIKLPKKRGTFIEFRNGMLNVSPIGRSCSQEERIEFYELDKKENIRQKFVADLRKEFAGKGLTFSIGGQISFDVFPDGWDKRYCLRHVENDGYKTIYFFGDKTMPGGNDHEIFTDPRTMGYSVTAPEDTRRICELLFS
Chain of CAAX prenyl protease 2 (Q9Y256 whole entry): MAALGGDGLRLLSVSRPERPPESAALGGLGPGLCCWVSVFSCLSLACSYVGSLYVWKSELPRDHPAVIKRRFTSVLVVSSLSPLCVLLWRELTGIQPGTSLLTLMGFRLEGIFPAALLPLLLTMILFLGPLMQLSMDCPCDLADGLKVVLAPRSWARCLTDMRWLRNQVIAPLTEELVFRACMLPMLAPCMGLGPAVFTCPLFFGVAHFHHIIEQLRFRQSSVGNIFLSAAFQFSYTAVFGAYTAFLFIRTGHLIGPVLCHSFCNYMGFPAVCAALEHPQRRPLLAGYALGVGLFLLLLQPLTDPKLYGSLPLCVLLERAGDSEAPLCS
Chain of Glyceraldehyde-3-phosphate dehydrogenase (P04406 whole entry): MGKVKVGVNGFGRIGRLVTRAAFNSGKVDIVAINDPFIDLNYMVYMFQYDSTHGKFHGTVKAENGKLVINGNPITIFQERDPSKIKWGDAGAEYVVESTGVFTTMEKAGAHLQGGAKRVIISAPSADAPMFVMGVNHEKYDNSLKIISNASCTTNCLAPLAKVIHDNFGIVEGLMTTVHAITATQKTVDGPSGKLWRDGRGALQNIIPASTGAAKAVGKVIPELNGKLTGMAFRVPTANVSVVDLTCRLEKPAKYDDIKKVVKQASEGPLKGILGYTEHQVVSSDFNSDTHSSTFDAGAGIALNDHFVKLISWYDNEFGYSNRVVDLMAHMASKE
Chain of Trypsin (P00761 whole entry): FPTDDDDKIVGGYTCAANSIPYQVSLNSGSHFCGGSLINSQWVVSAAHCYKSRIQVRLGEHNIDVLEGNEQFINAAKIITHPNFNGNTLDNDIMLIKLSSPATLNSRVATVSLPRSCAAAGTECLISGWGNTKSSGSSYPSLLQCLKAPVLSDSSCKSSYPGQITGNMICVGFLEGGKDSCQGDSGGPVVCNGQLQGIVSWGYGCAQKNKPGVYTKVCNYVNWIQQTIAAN

## O=C(Nc1ccc(C(F)(F)F)cc1)N1CCN(c2ccnc3cc(Cl)ccc23)CC1
Candida albicans [1]
  AC50: 4.73 µM (active)
Candida albicans [2]
  AC50: 0.404 µM (active)
NIH3T3
  AC50: 7.27 µM (active)
[3]
  EC50: > 60 µM (not active)
Candida albicans [4]
  AC50: 9.05 µM (active)
[5]
  EC50: 3.22 µM (active)

## O=C(NCc1cccc(C(F)(F)F)c1)C1CC(c2c(Cl)cccc2Cl)=NO1 (stereo not drawn)
Phospholipase A2
  IC50: 46.4 µM (inactive)
Cysteine protease ATG4B
  IC50: > 80 µM (inactive)

## S=c1[nH]nc(C2COc3ccccc3O2)[nH]1 (stereo not drawn)
[6]
  IC50: > 100 µM (inactive)
[7]
  IC50: 4.34 µM (active)
[8]
  IC50: 3.89 µM (active)
[9]
  IC50: 7.29 µM (active)
Phosphomannomutase 2
  IC50: > 100 µM (inactive)

## Cc1cccc(-c2oc3ccccc3c2C#CCCO)c1
cells
  IC50: 24.2 µM (active)
[10]
  AC50: 7.86 µM (active)
Trypsin
  AC50: 3.96 µM (active)
CAAX prenyl protease 2
  AC50: 32 µM (active)
[11]
  CC50: 19.5 µM (active)

## Cc1cc(C(=O)COC(=O)Cc2nnc(O)c3ccccc23)c(C)n1-c1cccc(C(F)(F)F)c1
DNA topoisomerase
  AC50: 11.4 µM (active)

## O=C(Nc1cccc2ncccc12)c1ccc([N+](=O)[O-])o1
Jurkat [12]
  IC50: 21.8 µM (inactive)
HEK293 [13]
  IC50: 23.4 µM (inactive)
HEK293 [14]
  IC50: 69.4 µM (inactive)

## Cc1c(Cl)cccc1NC(=S)NNc1ncc(C(F)(F)F)cc1Cl
Beta-galactosidase
  EC50: > 40 µM (inactive)
[15]
  IC50: > 66 µM (inactive)
[16]
  IC50: > 66 µM (inactive)
[17]
  IC50: 11.9 µM (active)

## COc1ccc(OCC(O)Cn2c(=N)n(CCN3CCCCC3)c3ccccc32)cc1 (stereo not drawn)
[18]
  IC50: 4.23 µM (active)
[19]
  IC50: 2.41 µM (active)

## CCOC(=O)c1c(N=C(S)Nc2ccc(Cl)cc2)sc2c1CCN(C)C2
[20]
  EC50: > 99 µM (inactive)
[21]
  EC50: > 99 µM (inactive)

## NC(=O)[C@H](Cc1ccccc1)n1c(=O)n(Cc2ccc(Br)cc2)c(=O)n(-c2ccccc2)c1=O
[22]
  IC50: > 100 µM (not active)
[23]
  IC50: > 100 µM (inactive)
[24]
  IC50: > 100 µM (inactive)
[25]
  IC50: > 100 µM (not active)

## Cc1ccc(NC(=O)COc2ccc(N(C)C(=O)C(C)(C)C)cc2)cc1S(=O)(=O)N1CCCCC1
INS1
  AC50: 5.61 µM (active)
Jurkat [26]
  IC50: 8.2 µM (active)
[27]
  IC50: > 80 µM (inactive)

## O=S(=O)(Nc1ccc(C(O)(C(F)(F)F)C(F)(F)F)cc1)c1cccc2cccnc12
[28]
  IC50: > 20 µM (inactive)
[29]
  IC50: > 20 µM (inactive)

## CC(C)C(=O)N1CCN(c2ccccn2)CC1
Candida albicans [30]
  AC50: 0.961 µM (active)

## Cc1ccc(CSCC(=O)N/N=C/c2sccc2C)cc1
[31]
  EC50: > 92.5 µM (inactive)
Mu-type opioid receptor
  EC50: 42.8 µM (inactive)
[32]
  EC50: > 92.5 µM (inactive)
